Test results taken from US7498441B2, “Biaryltetrahydroisoquinoline piperidines as selective MCH receptor antagonists for the treatment of obesity and related disorders” (Schering Corporation, priority 2003, dated 2009).

target: T1, MCH receptor (Homo sapiens, UniProt Q99705); test: MCH Receptor Binding Assay ([125I]-MCH, SPA, membranes from CHO cells expressing the MCH receptor); settings: MCH Receptor Activity (Preferred Compounds); dissociation constants; read-out: Ave KiMCH
T1 construct: expressed in transfected cells; host or cells: CHO cells
Procedure: Membranes from CHO cells expressing the MCH receptor were prepared by lysing cells with 5 mM HEPES for 15 min at 4 C. Cell lysates were centrifuged ([…], 15 min) and the pellet was resuspended in 5 mM HEPES. For each 96-well plate (Microlite, Dynex Technologies), 1 mg of cell membranes were incubated with 10 mg of wheat germ agglutinin SPA beads (Amersham) for 5 min at 4 C in a volume of 10 ml of binding buffer (25 mM HEPES, 10 mM MGCl2, 10 mM NaCl, 5 mM MnCl2, 0.1% BSA). The membrane/bead mixture was centrifuged (1500×g, 3.5 min), the supernatant was aspirated, and the pellet was resuspended in 10 ml binding buffer. The centrifugation, aspiration and resuspension were then repeated. The membrane/bead mixture (100 μl) was then added to 96-well plates containing 50 μl of 500 pM [^125I]-MCH (NEN) and […] of the appropriate concentration of compound (4× the desired final concentration). Nonspecific binding was determined by including 1 μM MCH in the binding reaction. The binding reaction was incubated at room temperature for 2 h. Plates were then analyzed in a TOPCOUNT microplate scintillation counter (Packard). Data was analyzed and Ki values for the compounds of Formula 1 were determined using GraphPad Prim.

T1 sequence (Q99705 whole entry): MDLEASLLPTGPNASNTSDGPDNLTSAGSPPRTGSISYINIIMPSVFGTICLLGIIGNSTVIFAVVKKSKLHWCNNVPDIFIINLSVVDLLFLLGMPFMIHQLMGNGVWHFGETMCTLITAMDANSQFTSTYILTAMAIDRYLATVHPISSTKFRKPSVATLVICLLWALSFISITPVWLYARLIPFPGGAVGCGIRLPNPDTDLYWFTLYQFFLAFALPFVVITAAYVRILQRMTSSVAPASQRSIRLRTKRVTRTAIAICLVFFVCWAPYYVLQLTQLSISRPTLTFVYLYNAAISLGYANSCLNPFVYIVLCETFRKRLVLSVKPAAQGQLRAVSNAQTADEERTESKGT

Ki | SMILES
11.2 nM | N#Cc1cccc(-c2ccc3c(c2)CCN(CC(=O)Nc2cc(Cl)cc(Cl)c2)C3C2CCN(C3CCCC3)CC2)c1 (stereo not shown) [Example 1]
24 nM | O=C(CN1CCc2cc(-c3ccncc3)ccc2C1C1CCN(C2CCCC2)CC1)Nc1cc(Cl)cc(Cl)c1 (stereo not shown) [Example 12]
23 nM | O=C(CN1CCc2cc(-c3cccnc3)ccc2C1C1CCN(C2CCCC2)CC1)Nc1cc(Cl)cc(Cl)c1 (stereo not shown) [Example 16]
22 nM | CN1CCC(C2c3ccc(-c4cccc(C#N)c4)cc3CCN2CC(=O)Nc2cc(Cl)cc(Cl)c2)CC1 (stereo not shown) [Example 17]
23 nM | N#Cc1cccc(-c2ccc3c(c2)CCN(CC(=O)Nc2cc(Cl)cc(Cl)c2)C3C2CCN(Cc3ccccc3)CC2)c1 (stereo not shown) [Example 19]
26 nM | N#Cc1cccc(-c2ccc3c(c2)CCN(CC(=O)Nc2cc(Cl)cc(Cl)c2)C3C2CCNCC2)c1 (stereo not shown) [Example 20]
6.8 nM | N#Cc1cccc(-c2ccc3c(c2)CCN(CC(=O)Nc2cc(Cl)cc(Cl)c2)C3C2CCN(CCCCCO)CC2)c1 (stereo not shown) [Example 21]
10 nM | N#Cc1cccc(-c2ccc3c(c2)CCN(CC(=O)Nc2cc(Cl)cc(Cl)c2)C3C2CCN(C3CCCCCC3)CC2)c1 (stereo not shown) [Example 22]
6.4 nM | N#Cc1cccc(-c2ccc3c(c2)CCN(CC(=O)Nc2cc(Cl)cc(Cl)c2)C3C2CCN(C3CCOCC3)CC2)c1 (stereo not shown) [Example 24]
7 nM | N#Cc1cccc(-c2ccc3c(c2)CCN(CC(=O)Nc2cc(Cl)cc(Cl)c2)C3C2CCN(C3CCSC3)CC2)c1 (stereo not shown) [Example 25]
14 nM | N#Cc1cccc(-c2ccc3c(c2)CCN(CC(=O)Nc2cc(Cl)cc(Cl)c2)C3C2CCN(Cc3ccoc3)CC2)c1 (stereo not shown) [Example 26]
16 nM | COc1ccccc1CN1CCC(C2c3ccc(-c4cccc(C#N)c4)cc3CCN2CC(=O)Nc2cc(Cl)cc(Cl)c2)CC1 (stereo not shown) [Example 27]
9.3 nM | N#Cc1cccc(-c2ccc3c(c2)CCN(CC(=O)Nc2cc(Cl)cc(Cl)c2)C3C2CCN(CC3CC3)CC2)c1 (stereo not shown) [Example 28]
15 nM | N#Cc1cccc(-c2ccc3c(c2)CCN(CC(=O)Nc2cc(Cl)cc(Cl)c2)C3C2CCN(C3CCC3)CC2)c1 (stereo not shown) [Example 29]
10 nM | N#Cc1cccc(-c2ccc3c(c2)CCN(CC(=O)Nc2cc(Cl)cc(Cl)c2)C3C2CCN(C3CCCCC3)CC2)c1 (stereo not shown) [Example 32]

same assay, conditions: MCH Receptor Antagonist Activity; rated A/B/C; read-out: Av. MCH Ki

Ki | SMILES
100 to 500 nM | O=C(CN1CCc2cc(-c3cccc(C(F)(F)F)c3)ccc2C1C1CCN(C2CCCC2)CC1)Nc1cc(Cl)cc(Cl)c1 (stereo not shown) [Example 1]
100 to 500 nM | O=C(CN1CCc2cc(-c3ccccc3)ccc2C1C1CCN(C2CCCC2)CC1)Nc1cc(Cl)cc(Cl)c1 (stereo not shown) [Example 2]
100 to 500 nM | N#Cc1ccc(-c2ccc3c(c2)CCN(CC(=O)Nc2cc(Cl)cc(Cl)c2)C3C2CCN(C3CCCC3)CC2)cc1 (stereo not shown) [Example 3]
1 to 100 nM | O=C(CN1CCc2cc(-c3cccc(F)c3)ccc2C1C1CCN(C2CCCC2)CC1)Nc1cc(Cl)cc(Cl)c1 (stereo not shown) [Example 4]
1 to 100 nM | O=C(CN1CCc2cc(-c3cccc(Cl)c3)ccc2C1C1CCN(C2CCCC2)CC1)Nc1cc(Cl)cc(Cl)c1 (stereo not shown) [Example 5]
1 to 100 nM | COc1cccc(-c2ccc3c(c2)CCN(CC(=O)Nc2cc(Cl)cc(Cl)c2)C3C2CCN(C3CCCC3)CC2)c1 (stereo not shown) [Example 6]
1 to 100 nM | O=C(CN1CCc2cc(-c3cccc(OC(F)(F)F)c3)ccc2C1C1CCN(C2CCCC2)CC1)Nc1cc(Cl)cc(Cl)c1 (stereo not shown) [Example 8]
1 to 100 nM | O=Cc1cccc(-c2ccc3c(c2)CCN(CC(=O)Nc2cc(Cl)cc(Cl)c2)C3C2CCN(C3CCCC3)CC2)c1 (stereo not shown) [Example 9]
1 to 100 nM | O=C(CN1CCc2cc(-c3cc(Cl)ccc3Cl)ccc2C1C1CCN(C2CCCC2)CC1)Nc1cc(Cl)cc(Cl)c1 (stereo not shown) [Example 10]
100 to 500 nM | O=C(CN1CCc2cc(-c3ccsc3)ccc2C1C1CCN(C2CCCC2)CC1)Nc1cc(Cl)cc(Cl)c1 (stereo not shown) [Example 13]
1 to 100 nM | O=C(CN1CCc2cc(-c3cccc(-c4ncc[nH]4)c3)ccc2C1C1CCN(C2CCCC2)CC1)Nc1cc(Cl)cc(Cl)c1 (stereo not shown) [Example 14]
100 to 500 nM | O=C(CN1CCc2cc(-c3ccc[nH]3)ccc2C1C1CCN(C2CCCC2)CC1)Nc1cc(Cl)cc(Cl)c1 (stereo not shown) [Example 15]
> 500 nM | O=C(CN1CCc2cc(-c3cccc(C(=O)O)c3)ccc2C1C1CCN(C2CCCC2)CC1)Nc1cc(Cl)cc(Cl)c1 (stereo not shown) [Example 18]
1 to 100 nM | N#Cc1cccc(-c2ccc3c(c2)CCN(CC(=O)Nc2cc(Cl)cc(Cl)c2)C3C2CCN(Cc3ccccc3)CC2)c1 (stereo not shown) [Example 19]
> 500 nM | O=C(CN1CCc2cc(-c3cccc4cccnc34)ccc2C1C1CCN(C2CCCC2)CC1)Nc1cc(Cl)cc(Cl)c1 (stereo not shown) [Example 20]
1 to 100 nM | CN1CCC(N2CCC(C3c4ccc(-c5cccc(C#N)c5)cc4CCN3CC(=O)Nc3cc(Cl)cc(Cl)c3)CC2)CC1 (stereo not shown) [Example 23]

Ki | SMILES
1 to 100 nM | N#Cc1cccc(-c2ccc3c(c2)CCN(CC(=O)Nc2cc(Cl)cc(Cl)c2)C3C2CCN(CCCc3ccccc3)CC2)c1 (stereo not shown) [Example 30]
1 to 100 nM | CC(C)N1CCC(C2c3ccc(-c4cccc(C#N)c4)cc3CCN2CC(=O)Nc2cc(Cl)cc(Cl)c2)CC1 (stereo not shown) [Example 31]
> 500 nM | N#Cc1cccc(-c2ccc3c(c2)CCN(CC(=O)Nc2cc(Cl)cc(Cl)c2)C3C2CCN(C(=O)C3CCCC3)CC2)c1 (stereo not shown) [Example 33]
100 to 500 nM | CCN(CC)C(=O)N1CCC(C2c3ccc(-c4cccc(C#N)c4)cc3CCN2CC(=O)Nc2cc(Cl)cc(Cl)c2)CC1 (stereo not shown) [Example 34]
> 500 nM | CC(=O)N1CCC(C2c3ccc(-c4cccc(C#N)c4)cc3CCN2CC(=O)Nc2cc(Cl)cc(Cl)c2)CC1 (stereo not shown) [Example 35]
> 500 nM | CS(=O)(=O)N1CCC(C2c3ccc(-c4cccc(C#N)c4)cc3CCN2CC(=O)Nc2cc(Cl)cc(Cl)c2)CC1 (stereo not shown) [Example 36]
100 to 500 nM | CN(C)S(=O)(=O)N1CCC(C2c3ccc(-c4cccc(C#N)c4)cc3CCN2CC(=O)Nc2cc(Cl)cc(Cl)c2)CC1 (stereo not shown) [Example 37]
100 to 500 nM | N#Cc1cccc(-c2ccc3c(c2)CCN(CC(=O)Nc2cc(Cl)cc(Cl)c2)C3C2CCN(Cc3nccs3)CC2)c1 (stereo not shown) [Example 38]
> 500 nM | CCS(=O)(=O)N1CCC(C2c3ccc(-c4cccc(C#N)c4)cc3CCN2CC(=O)Nc2cc(Cl)cc(Cl)c2)CC1 (stereo not shown) [Example 39]
> 500 nM | N#Cc1cccc(-c2ccc3c(c2)CCN(C(=O)Nc2cc(Cl)cc(Cl)c2)C3C2CCN(Cc3ccccc3)CC2)c1 (stereo not shown) [Example 40]
> 500 nM | N#Cc1cccc(-c2ccc3c(c2)CCN(C(=O)Nc2ccc(Cl)c(Cl)c2)C3C2CCN(Cc3ccccc3)CC2)c1 (stereo not shown) [Example 41]
100 to 500 nM | N#Cc1cccc(-c2ccc3c(c2)CCN(Cc2nc4ccccc4[nH]2)C3C2CCN(Cc3ccccc3)CC2)c1 (stereo not shown) [Example 42]
1 to 100 nM | N#Cc1cccc(-c2ccc3c(c2)CCN(Cc2nc4cc(Cl)c(Cl)cc4[nH]2)C3C2CCN(Cc3ccccc3)CC2)c1 (stereo not shown) [Example 43]
100 to 500 nM | CN1CCC(C2c3ccc(-c4cccc(C#N)c4)cc3CCN2Cc2nc3cc(Cl)c(Cl)cc3[nH]2)CC1 (stereo not shown) [Example 44]
1 to 100 nM | N#Cc1cccc(-c2ccc3c(c2)CCN(Cc2nc4cc(F)c(Cl)cc4[nH]2)C3C2CCN(Cc3ccccc3)CC2)c1 (stereo not shown) [Example 45]
